# Source: patent US9956202B2, “Use of indolyl and indolinyl hydroxamates for treating neurodegenerative disorders or cognitive decicits” (Taipei Medical University, priority 2013, dated 2018)
# Experiments:
# Tg2576 mice = test: Contextual fear conditioning (CS-US pairing) in dementia animal model; type: in vivo; settings: orally 50 mg/kg per day for 20 days, 6-month old p=0.0264, 12-month old p=0.0028 vs untreated of same age
# From the text: (§1) Tg2576 transgenic mice carry a transgene coding for the 695-amino acid isoform of human APP derived from a large Swedish family with early-onset Alzheimer's disease (AD). These mice express high concentrations of the mutant Aβ, develop significant number of amyloid plaques and display memory deficits.
# Tg2576 transgenic mice carry a transgene coding for the 695-amino acid isoform of human APP derived from a large Swedish family with early-onset Alzheimer's disease (AD). These mice express high concentrations of the mutant Aβ, develop significant number of amyloid plaques and display memory deficits. Tg2576 mice were purchased from The Jackson laboratory (Maine, US). C57BL/6J mice 6-8 week of age were purchased from BioLASCO Taiwan Co., Ltd for dose-dependent effect study. The animals were housed 5 per cage in a temperature (21±1° C.)—and humidity (70±5%)—controlled room, under a 12 h-12 h light-dark cycle (lights on at 6:00 a.m.). Animal had free access to food and water during the experiment. Behavior testing was carried out in the light phase of the cycle. […]
# (§2) All mice were transported to the laboratory for 2 hour before training to erase unnecessary stress. […] The data was recorded and calculated by its system software (TruScan 2.02).
# [1] = test system: histone 3 and 4 acetylation, p21 and phospho-ERK; test: Western blot of histone 3 and 4 acetylation, p21 and phospho-ERK after spinal cord injury; type: in vivo, rats; settings: 100 mg/kg intravenous injection, vs vehicle control
# Method: (§3) In this example, effects of compounds of this invention were verified using spinal cord injury animal model.
# (§4) The spinal cord injury was produced by using the NYU (New York University) impactor device. The spinal cord contusion was performed under deep anesthesia with Zoleti150 (40 mg/kg i.p.) After a dorsal laminectomy was performed on T9, the spinal cord segments T9 were exposed. Then, the surgery of spinal cord injury was produced by dropping the 10 gram rod from a height of 50 mm.
# (§5) Compound 1 was dissolved in 5% ethanol, 35% polyethylene glycol and 60% normal saline at a concentration of 15 mg/ml. […]
# C57BL/6J mice = test: Contextual fear conditioning (freezing behavioral test) in normal mice; type: in vivo; settings: normal C57BL/6J mice; 50, 100, 200 mg/kg intraperitoneally once before training; test 24 h after training; dose dependent; *p<0.05, **p<0.01
# From the text: Tg2576 transgenic mice carry a transgene coding for the 695-amino acid isoform of human APP derived from a large Swedish family with early-onset Alzheimer's disease (AD). These mice express high concentrations of the mutant Aβ, develop significant number of amyloid plaques and display memory deficits. Tg2576 mice were purchased from The Jackson laboratory (Maine, US). C57BL/6J mice 6-8 week of age were purchased from BioLASCO Taiwan Co., Ltd for dose-dependent effect study. The animals were housed 5 per cage in a temperature (21±1° C.)—and humidity (70±5%)—controlled room, under a 12 h-12 h light-dark cycle (lights on at 6:00 a.m.). Animal had free access to food and water during the experiment. Behavior testing was carried out in the light phase of the cycle. All animal experiments were carried out in accordance with the guidelines established by the Institutional Animal Care and Utilization Committee of the Taipei Medical University (Taipei, Taiwan, R.O.C.).
# as §5, §2
# [2] = test system: NeuN-positive neurons of spinal cord; test: NeuN immunohistochemistry after spinal cord injury; type: in vivo; settings: rats after spinal cord injury, 30 mg/Kg per day for 7 days, vs vehicle
# Method: as §3, §4, §5
# (§6) On 7th day after hemisection spinal cord injury, animals were deeply anesthetized by isoflurane and perfused through the left ventricle with phosphate-buffered saline (PBS), followed by cold 4% paraformaldehyde in 0.15M sodium phosphate buffer, pH 7.4. […] Furthermore, apoptosis after spinal cord injury was detected by terminal deoxynucleotidyl transferase-mediated deoxyuridine triphosphate nick-end labeling (TUNEL) using the apoptosis detection kit (Oncogene Research Products, Cambridge, Mass.). […] Only cells with clearly visible stain were counted. All data are presented as means±SEM of five consecutive cell quantifications.
# [3] = test system: Sprague-Dawley rats with spinal cord injury; test: BBB Locomotor Rating Scale after spinal cord injury; type: in vivo; settings: intravenous 30 mg/Kg per day for 7 days, 7 days after spinal cord injury, vs vehicle, p=0.0147
# Method: as §3
# Male Sprague-Dawley rats (Academia Sinica, Taiwan), weighing 280-330 g, were kept two per cage for at least five days after their arrival. The rats had access to food and water at libitum and were housed within a room with a 12:12 h dark-light cycle. This study was performed in accordance with the guidelines provided by the Experimental Animal Laboratory and approved by the Animal Care and Use Committee in Taipei Medical University.
# as §4
# Behavioral tests and analyses were performed by observers blinded to the treatments. Locomotor function was observed and recorded using the Basso, Beattie, and Bresnahan (BBB) Locomotor Rating Scale. On days 1, 3, and 7 post injury, hindlimb motor function was assessed using the open-field BBB score locomotor test.
# as §5
# [4] = test system: synaptic plasticity proteins; test: Western blotting of synaptic plasticity proteins in hippocampus of Tg2576 mice; type: in vivo; settings: oral gavage 50 mg/kg per day for 20 days
# Method: as §1
# Compound 1 was dissolved in 5% ethanol, 35% polyethylene glycol and 60% normal saline at a concentration of 15 mg/ml. C57BL/6J Mice were treated with Compound 1 (50, 100, 200 mg/kg, intraperitoneally) or vehicle once before contexual fear conditioning training. Then, Tg2576 transgenic mice were treated with Compound 1 orally (50 mg/kg per day for 20 days) or vehicle at the ages of 5 months and 11 months.
# Animals were deep anesthetized with choral hydrate (400 mg/kg) and perfused with both normal saline and 4% paraformaldehyde. The hippocampus were collected and lysed in lysis buffer (Lysis-M reagent, Roche). The lysates were incubated for 5 min on ice and centrifuged for 20 min at 14,000 r.p.m. and 4° C. The supernatant was collected as cytosolic protein extract. Protein concentrations were measured and normalized using Bradford protein assay kit (Pierce). After normalization, 30 μg of protein was subjected to western blotting. Immunoreactivity was examined by enhanced chemiluminescence (Millipore).
# [5] = test system: apoptotic cells of spinal cord; test: TUNEL staining of apoptosis after spinal cord injury; type: in vivo; settings: rats after spinal cord injury, 30 mg/Kg per day for 7 days, vs vehicle
# Method: as §3, §4, §5, §6
smiles,measurement,setting,value
"O=C(/C=C/c1ccc2c(ccn2S(=O)(=O)c2ccccc2)c1)NO [compound 1, 3-(1-benzensulfonyl-1H-indol-5-yl)-N-hydroxy-acrylamide]",tone-shock pairing memory (contextual fear conditioning),Tg2576 mice,enhanced
same,expression of histone 4 acetylation (ac-H4),[1]; p=0.0023,Significant increase
same,expression of p21,[1]; p=0.0043,Significant increase
same,expression of phospho-ERK (p-ERK),[1]; p=0.0311,Significant increase
same,expression of histone 3 acetylation (ac-H3),[1]; p=0.0451,Significant increase
same,strength of tone-shock pairing memory (freezing behavioral test),C57BL/6J mice,increased significantly
same,neuron cells percentage (NeuN),[2]; p<0.0001,significantly preserved
same,neuron cells number (NeuN),[2]; p=0.0151,significantly preserved
same,BBB score (motor function),[3],significant recovery
same,acetyl-Histone H4 expression in hippocampus,[4]; ###p=0.0008,elevated
same,p21 expression in hippocampus,[4]; #p=0.0145,elevated
same,NR2a protein expression in hippocampus,[4]; #p=0.0231,elevated
same,pERK expression in hippocampus,[4]; #p=0.0428,elevated
same,NR2b protein expression in hippocampus,[4]; #p=0.0492,elevated
same,apoptotic cells number (TUNEL),[5]; p=0.0015,significantly reduced
same,apoptotic cells percentage (TUNEL),[5]; p=0.0098,significantly reduced
